This is an account of results in ChEMBL document CHEMBL1143306, “3-amido-4-anilinoquinolines as CSF-1R kinase inhibitors 2: Optimization of the PK profile” (Bioorg Med Chem Lett, 2009).

Data set [1] is described as follows: Half life in rat at 3 mg/kg, iv and 10 mg/kg, po. It is filed as ADME, organism-based. Particulars: in vivo.
The subject of data set [2] is Mus musculus. Briefly: Inhibition of phosphorylated CSF1R level in 3T3/CSF1R mutant cells xenografted nude mouse at 25 mg/kg, po after 2 hrs by ELISA. It counts as functional. On the technique in general: ELISA stands for enzyme-linked immunosorbent assay.
The nature of data set [3]: Plasma protein binding assessed as percentage unbound.
Data set [4] deals with NIH3T3. Briefly: Antiproliferative activity against mouse 3T3 cells expressing human CSF1R after 72 hrs by Celltiter assay. It is filed as functional.
Data set [5] is described as follows: Volume of distribution at steady state in rat at 3 mg/kg, iv and 10 mg/kg, po. It is filed as ADME, organism-based. As to conditions: in vivo, read-out: Vdss.
The nature of data set [6]: Clearance in rat at 3 mg/kg, iv and 10 mg/kg, po. It counts as ADME, organism-based. Particulars: in vivo.
In data set [7] the test system is Mus musculus. Briefly: Inhibition of phosphorylated CSF1R level in 3T3/CSF1R mutant cells xenografted nude mouse at 25 mg/kg, po after 6 hrs by ELISA. It is filed as functional.
Data set [8] is described as follows: Aqueous solubility of the compound. It counts as physicochemical. As to conditions: buffer.
A short description of data set [9]: Bioavailability in rat at 3 mg/kg, iv and 10 mg/kg, po. It counts as ADME, organism-based. As to conditions: in vivo.
Data set [10] has as its target Macrophage colony-stimulating factor 1 receptor (Homo sapiens, UniProt P07333). Briefly: Inhibition of CSF1R.

Converted amounts (≈) assume the structure as drawn.

Sequence of Macrophage colony-stimulating factor 1 receptor (P07333 whole entry): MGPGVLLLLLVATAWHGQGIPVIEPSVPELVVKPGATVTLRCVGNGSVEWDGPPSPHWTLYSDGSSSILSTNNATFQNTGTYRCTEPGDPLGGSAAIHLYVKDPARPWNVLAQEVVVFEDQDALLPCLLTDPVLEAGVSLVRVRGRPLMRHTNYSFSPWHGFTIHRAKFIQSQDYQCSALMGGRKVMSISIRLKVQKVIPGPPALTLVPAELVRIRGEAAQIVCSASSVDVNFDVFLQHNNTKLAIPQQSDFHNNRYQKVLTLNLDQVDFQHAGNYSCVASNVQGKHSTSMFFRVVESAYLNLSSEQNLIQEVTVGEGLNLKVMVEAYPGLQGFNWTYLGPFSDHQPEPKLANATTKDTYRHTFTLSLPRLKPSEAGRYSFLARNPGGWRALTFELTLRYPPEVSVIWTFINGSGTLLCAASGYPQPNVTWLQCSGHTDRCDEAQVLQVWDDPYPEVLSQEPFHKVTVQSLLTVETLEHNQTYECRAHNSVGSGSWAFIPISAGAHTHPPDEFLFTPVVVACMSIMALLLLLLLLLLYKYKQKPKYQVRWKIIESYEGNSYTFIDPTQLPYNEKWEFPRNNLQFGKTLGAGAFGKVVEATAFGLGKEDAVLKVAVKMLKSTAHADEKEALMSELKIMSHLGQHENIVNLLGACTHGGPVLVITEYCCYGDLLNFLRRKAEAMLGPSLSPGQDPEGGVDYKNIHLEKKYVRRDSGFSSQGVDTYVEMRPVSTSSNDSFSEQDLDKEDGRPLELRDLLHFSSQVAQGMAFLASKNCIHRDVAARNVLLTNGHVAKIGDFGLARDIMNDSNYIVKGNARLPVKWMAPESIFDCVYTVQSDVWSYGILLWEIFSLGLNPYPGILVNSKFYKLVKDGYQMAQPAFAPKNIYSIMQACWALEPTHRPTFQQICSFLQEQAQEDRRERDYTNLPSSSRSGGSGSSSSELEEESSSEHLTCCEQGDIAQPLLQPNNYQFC

In the case of `CCOc1cc2ncc(C(N)=O)c(Nc3cc(F)ccc3F)c2cc1N1CCN(C)CC1`, in data set [1], the half-life is 1.3 h. Also, the inhibition in vivo at 25 mg/kg was 75% in data set [2] and 45% in data set [7]. Further, the free fraction (fraction unbound) in data set [3] was 0.073. Also, in [4], the Activity stood at 0.11 µM. Moreover, the Vd in data set [5] was determined as 2.9 L/kg. In [6], this compound displayed a clearance of 1.68 L/h/kg. The compound further yielded a solubility in data set [8] of 71 µM (≈ 31.3 µg/mL). Further, the bioavailability in [9] came to 33%.

Consider `COc1cc2c(Nc3ccc(F)cc3F)c(C(N)=O)cnc2cc1N1CCN(C)CC1`, for which the concentration for half-maximal inhibition (IC50) in data set [10] was found to be 0.011 µM. In [4], this compound showed an Activity of 0.72 µM. The solubility in data set [8] was greater than 1000 µM.

Compound `CN1CCN(c2cc3c(Nc4ccc(F)cc4F)c(C(N)=O)cnc3cc2F)CC1` had a half-life in data set [1] of 1.1 h. Besides, in data set [10], inhibition was half-maximal at 0.054 µM (IC50). Further, in data set [3], the unbound share (fraction unbound) was 0.24. For the same compound, the Activity in data set [4] was determined as 4.2 µM. Further, the Vd in data set [5] amounted to 1.4 L/kg. In [6], this compound displayed a clearance of 1.2 L/h/kg. In [8], this compound displayed a solubility of 71 µM (≈ 29.5 µg/mL). The compound further yielded a bioavailability in data set [9] of 13%.

`CCOc1cc2ncc(C(N)=O)c(Nc3cccc(Cl)c3Cl)c2cc1N1CCCN(C)CC1` had a half-life in [1] of 8.6 h. Besides, the inhibition in vivo at 25 mg/kg in data set [2] stood at 90%; in [7], 95%. In addition, the free fraction (fraction unbound) in data set [3] is 0.019. The compound further yielded an Activity in data set [4] of 0.05 µM. Moreover, the Vd in [5] worked out at 40 L/kg. The compound also came in with a clearance in data set [6] of 3.78 L/h/kg. Moreover, the concentration in solution in data set [8] (solubility) came to 130 µM (≈ 63.5 µg/mL). Besides, the bioavailability in data set [9] was determined as 100%.

`CN1CCN(c2ccc3ncc(C(N)=O)c(Nc4ccc(F)cc4F)c3c2)CC1`: in data set [1], the half-life was 1.9 h. The compound also returned a half-inhibitory concentration (IC50) in data set [10] of 0.11 µM. The fraction unbound in data set [3] stood at 0.26. Moreover, the Activity in data set [4] is 3.9 µM. Besides, the Vd in [5] amounted to 7.6 L/kg. This compound showed a clearance in [6] of 2.7 L/h/kg. For the same compound, in data set [8], the solubility amounted to 970 µM (≈ 386 µg/mL). Besides, the bioavailability in data set [9] was determined as 21%.

In data set [1], `CCOc1cc2ncc(C(N)=O)c(Nc3ccc(F)c(Cl)c3)c2cc1N1CCN(C)CC1` showed a half-life of 2.2 h. Also, the inhibition in vivo at 25 mg/kg turned out to be 70% in data set [2] and 55% in data set [7]. Also, in data set [3], the fraction unbound worked out at 0.034. The Activity in [4] worked out at 0.13 µM. For the same compound, in [5], the Vd is 9.3 L/kg. The compound further gave a clearance in data set [6] of 3.18 L/h/kg. The same compound came in with a bioavailability in [9] of 55%.

Take `CCOc1cc2ncc(C(N)=O)c(Nc3cccc(Cl)c3Cl)c2cc1N1CCN(CC)CC1`: the half-life in [1] was 1.2 h. The inhibition in vivo at 25 mg/kg in data set [2] turned out to be 95%; in data set [7] it was 75%. Also, the free fraction (fraction unbound) in data set [3] amounted to 0.019. For the same compound, the Activity in data set [4] came out at 0.02 µM. Moreover, the Vd in data set [5] is 6.8 L/kg. The compound also showed a clearance in data set [6] of 5.16 L/h/kg. In data set [8], this compound displayed a solubility of 11 µM (≈ 5.37 µg/mL). Also, the bioavailability in data set [9] is 19%.

The compound `CCOc1cc2ncc(C(N)=O)c(Nc3cccc(Cl)c3Cl)c2cc1N1CCN(C(C)C)CC1` showed a half-life in [1] of 1.2 h. Besides, the figures for the inhibition in vivo at 25 mg/kg in [2] and in data set [7] were 85% and 65%, respectively. The fraction unbound in data set [3] was 0.015. The Activity in [4] came to 0.02 µM. For the same compound, the Vd in [5] turned out to be 11 L/kg. In [6], the clearance was determined as 7.2 L/h/kg. Further, in data set [8], the solubility stood at 250 µM (≈ 126 µg/mL). The bioavailability in [9] was found to be 66%.

In data set [1], `CC(C)Oc1cc2ncc(C(N)=O)c(Nc3ccc(F)cc3F)c2cc1N1CCN(C)CC1` had a half-life of 2.3 h. Moreover, the values for the inhibition in vivo at 25 mg/kg in [2] and in data set [7] were 100% and 50%, respectively. Moreover, the unbound share (fraction unbound) in data set [3] came out at 0.017. This compound also displayed an Activity in data set [4] of 0.17 µM. For the same compound, the Vd in data set [5] stood at 1.4 L/kg. The same compound displayed a clearance in [6] of 0.42 L/h/kg. The same compound registered a solubility in data set [8] of 52 µM (≈ 23.7 µg/mL). Further, in [9], the bioavailability came to 40%.

In turn, `COCCOc1cc2ncc(C(N)=O)c(Nc3cc(C)ccc3F)c2cc1N1CCN(C)CC1` gave a half-life in data set [1] of 4.2 h. Moreover, the inhibition in vivo at 25 mg/kg in [2] came out at 85%; in [7], 70%. Moreover, the free fraction (fraction unbound) in [3] is 0.16. The Activity in [4] came out at 0.17 µM. Besides, in [5], the Vd turned out to be 4.7 L/kg. Besides, the clearance in data set [6] is 3.6 L/h/kg. The compound further returned a bioavailability in [9] of 45%.

In turn, `CN1CCN(c2cc3c(Nc4cccc(Cl)c4Cl)c(C(N)=O)cnc3cc2F)CC1` had a half-life in data set [1] of 0.8 h. This compound also registered an IC50 in [10] of 0.003 µM. For the same compound, the fraction unbound in data set [3] was determined as 0.044. The same compound had an Activity in data set [4] of 0.44 µM. Besides, the Vd in data set [5] is 1.1 L/kg. The compound further registered a clearance in [6] of 1.38 L/h/kg. The same compound returned a solubility in data set [8] of 8 µM (≈ 3.59 µg/mL).

For the compound `COc1cc2c(Nc3ccc(Cl)c(Cl)c3)c(C(N)=O)cnc2cc1N1CCN(C)CC1`, the IC50 in data set [10] turned out to be 0.024 µM. Besides, in data set [4], the Activity is 0.55 µM.

In turn, `CN1CCN(c2ccc3ncc(C(N)=O)c(Nc4ccc(Cl)cc4Cl)c3c2)CC1` yielded an IC50 in data set [10] of 0.129 µM. The fraction unbound in data set [3] amounted to 0.018. Further, in [4], the Activity was 8.9 µM. The same compound displayed a solubility in data set [8] of 180 µM (≈ 77.5 µg/mL).

The compound `COCCOc1cc2ncc(C(N)=O)c(Nc3cccc(Cl)c3Cl)c2cc1N1CCN(C)CC1` showed a half-life in data set [1] of 0.83 h. Besides, the values for the inhibition in vivo at 25 mg/kg in [2] and in data set [7] were 100% and 80%, respectively. Moreover, the fraction unbound in data set [3] worked out at 0.1. Further, in data set [4], the Activity is 0.01 µM. Also, the Vd in data set [5] turned out to be 21 L/kg. In [6], this compound showed a clearance of 17.4 L/h/kg. Further, the concentration in solution in data set [8] (solubility) was 380 µM (≈ 192 µg/mL). The bioavailability in [9] was determined as 32%.

With `CN1CCN(c2ccc3ncc(C(N)=O)c(Nc4ccc(Cl)c(Cl)c4)c3c2)CC1`, in data set [10], it took 0.059 µM to reach half-maximal inhibition (IC50). Further, the fraction unbound in data set [3] was found to be 0.058. For the same compound, in [4], the Activity worked out at 2.7 µM. This compound showed a solubility in [8] of 720 µM (≈ 310 µg/mL).

For `CCOc1cc2ncc(C(N)=O)c(Nc3cccc(Cl)c3Cl)c2cc1N1CCN(C(C)=O)CC1`, the half-life in data set [1] was 0.65 h. Moreover, the inhibition in vivo at 25 mg/kg in data set [2] came out at 65%; in data set [7], 30%. Besides, in data set [3], the free fraction (fraction unbound) came out at 0.096. In addition, the Activity in data set [4] was determined as 0.07 µM. Besides, in data set [5], the Vd was determined as 2.3 L/kg. The compound further returned a clearance in data set [6] of 3.72 L/h/kg. The concentration in solution in data set [8] (solubility) was 2 µM (≈ 1 µg/mL). The same compound gave a bioavailability in [9] of 11%.

For `COc1cc2ncc(C(N)=O)c(Nc3ccc(Cl)cc3Cl)c2cc1N1CCN(C)CC1`, in [1], the half-life is 1.7 h. The compound further showed an IC50 in data set [10] of 0.003 µM. The fraction unbound in [3] is 0.032. Also, the Activity in data set [4] was found to be 0.64 µM. The Vd in data set [5] was determined as 8.7 L/kg. The compound further had a clearance in data set [6] of 4.32 L/h/kg. Besides, the concentration in solution in [8] (solubility) came to 160 µM (≈ 73.7 µg/mL).

As to `CCOc1cc2ncc(C(N)=O)c(Nc3cccc(Cl)c3F)c2cc1N1CCN(C)CC1`, the half-life in [1] was 1.1 h. In addition, the inhibition in vivo at 25 mg/kg turned out to be 100% in data set [2] and 90% in [7]. Also, in data set [3], the unbound share (fraction unbound) was found to be 0.071. In addition, the Activity in data set [4] turned out to be 0.11 µM. Besides, the Vd in data set [5] was determined as 1.9 L/kg. The compound also returned a clearance in data set [6] of 1.44 L/h/kg. Further, the solubility in [8] turned out to be 10 µM (≈ 4.58 µg/mL). In data set [9], this compound came in with a bioavailability of 54%.

Turning to `CN1CCN(c2ccc3ncc(C(N)=O)c(Nc4cccc(Cl)c4Cl)c3c2)CC1`, the half-life in data set [1] was 0.7 h. Besides, it took 0.008 µM to reach half-maximal inhibition in data set [10] (IC50). In addition, the fraction unbound in data set [3] was determined as 0.046. In [4], this compound had an Activity of 0.71 µM. The Vd in data set [5] was 5.9 L/kg. The same compound had a clearance in data set [6] of 11.4 L/h/kg. The same compound displayed a solubility in data set [8] of 44 µM (≈ 18.9 µg/mL).

A word on the half-life: it is the time needed for the level to fall by half in the phase considered. The low end stands for fast loss, the high end for slow loss. A word on the inhibition in vivo: it is the drop in the measured response relative to a control, in per cent. One may read the fraction unbound as the share of the substance not bound to proteins or other matrix. Broadly, the solubility is how much of the substance goes into solution per volume. For orientation: bioavailability means dose-corrected exposure relative to a reference, in per cent. Low values mean poor availability, high ones good availability. As a reminder, the IC50 is the concentration at which inhibition is half-maximal. Low values mean inhibition by little substance, high ones a need for much substance.
